Test results reported in patent US9434695B2, “Nitrogenous heterocyclic derivatives and their application in drugs” (SUNSHINE LAKE PHARMA CO., LTD., priority 2012, dated 2016).

Assays:
BHK-21 cells = experiment: inhibition of BHK-21 cell proliferation (CCK-8, optical density at 450 nm); format: cell-based; conditions: for IC50: Mesocricetus auratus, inhibition ratio of cell proliferation, 48 hours after dosing, CCK-8; for The ratio with PFD (multiple): ratio of Pirfenidone IC50 from the compound IC50, the bigger the multiple, the better the vitro inhibitory activity, 48 hours
Experimental: Taking BHK-21 cells which in exponential growth phase, collecting and counting the cells which had digestive transfer culture after fusion growth 85-95%, adjusting the cell density to 2×10^4 cells per milliliter, seeding the cells into 96-well plates, 100 μl/well, the cells were incubated in a 5% CO2 incubator at 37° C.
The upper clear liquid of the 96-well plates was removed after the cells adhering to the wall 24 hours. The above compounds were confected into solutions of different concentration and the solutions were added to the wells, 100 μl/well. Each concentration solution in 3 replicates, the cells were subcultured 48 hours after dosing.
3. Testing the Optical Density
10 μl of CCK-8 solution was added to each well 48 hours after dosing, and incubated for 2 hours. The optical density (A) of each well was determined by a microplate reader at 450 nm wavelength. Calculating the inhibition ratio of cell proliferation of each compound is based on A and the inhibition ratio of cell proliferation (inhibition ratio, IR)=(1−value of experimental group (Ai)/value of control group (Ao))×100% and the IC50 of each compound at 48 hours was calculated by data processing software.

ECM gathering = conditions: animal experiments of renal fibrosis, pulmonary fibrosis; clinical trials of patients with specific lung fibrosis; cited from earlier work

Compound | IC50 (BHK-21 cells) [µM] | The ratio with PFD (multiple) (BHK-21 cells) | effect on ECM gathering (ECM gathering)
Cc1cc(=O)n(-c2ccc(N3CCN(C)CC3)c(F)c2)c(COc2cccc(F)c2)n1 [Example 55, 3-(3-fluoro-4-(4-methylpiperazin-1-yl)phenyl)-2-((3-fluorophenoxy)methyl)-6-methylpyrimidin-4(3H)-one] | 50 | 46.92 | –
Cc1cc(=O)n(-c2ccc(N3CCOCC3)c(Cl)c2)c(COc2ccc(Cl)c3ccccc23)n1 [Example 67] | 140 | 25.09 | –
Cc1cc(=O)n(-c2ccc(N3CCN(C)CC3)c(F)c2)c(C)n1 [Example 12, 3-(3-fluoro-4-(4-methylpiperazin-1-yl)phenyl)-2,6-dimethylpyrimidin-4(3H)-one] | 1400 | 2.74 | –
Cc1cc(=O)n(-c2ccc(N3CCOCC3)c(Cl)c2)c(C)n1 [Example 46, 3-(3-chloro-4-morpholinophenyl)-2,6-dimethylpyrimidin-4(3H)-one] | 1070 | 2.80 | –
COc1cccc(OCc2nc(C)cc(=O)n2-c2ccc(N3CCOCC3)c(F)c2)c1 [Example 71, 3-(3-fluoro-4-morpholinophenyl)-2-((3-methoxyphenoxy)methyl)-6-methylpyrimidin-4(3H)-one] | 80 | 48.76 | –
Cc1cc(=O)n(-c2ccc(NCCCn3cnnn3)c(F)c2)c(C)n1 [Example 37, 3-(4-((3-(1H-tetrazol-1-yl)propyl)amino)-3-fluorophenyl)-2,6-dimethylpyrimidin-4(3H)-one] | 4310 | 1.80 | –
Cc1cc(=O)n(-c2ccc(N3CCS(=O)(=O)CC3)c(F)c2)c(C)n1 [Example 10, 3-(4-(1,1-dioxidothiomorpholino)-3-fluorophenyl)-2,6-dimethylpyrimidin-4(3H)-one] | 5550 | 0.72 | –
Cc1cc(=O)n(-c2ccc(N3CCOCC3)c(F)c2)c(COc2cc(F)cc(F)c2)n1 [Example 50, 2-((3,5-difluorophenoxy)methyl)-3-(3-fluoro-4-morpholinophenyl)-6-methylpyrimidin-4(3H)-one] | 60 | 42.93 | –
Cc1cc(=O)n(-c2ccc(NCCN3CCOCC3)c(F)c2)c(COc2cccc(F)c2)n1 [Example 57, 3-(3-fluoro-4-((2-morpholinoethyl)amino)phenyl)-2-((3-fluorophenoxy)methyl)-6-methylpyrimidin-4(3H)-one] | 100 | 84.22 | –
Cc1cc(=O)n(-c2ccc(N3CCOCC3)c(F)c2)c(CCCOc2cccc(F)c2)n1 [Example 53, 3-(3-fluoro-4-morpholinophenyl)-2-(3-(3-fluorophenoxy)propyl)-6-methylpyrimidin-4(3H)-one] | 500 | 15.49 | –
Cc1cc(=O)n(-c2ccc(NC(C)(C)Cc3ccc4ccccc4c3)c(Cl)c2)c(C)n1 [Example 45, 3-(3-chloro-4-((2-methyl-1-(naphthalen-2-yl)propan-2-yl)amino)phenyl)-2,6-dimethylpyrimidin-4(3H)-one] | 70 | 42.60 | –
Cc1ccc(=O)n(-c2ccccc2)c1 [pirfenidone, 5-methyl-1-phenyl-2-(1H)-pyridone] | – | – | could prevent ECM gathering, or even reverse it
Cc1cc(=O)n(-c2ccc(NCCN3CCOCC3)cc2Cl)c(C)n1 [Example 29, 3-(2-chloro-4-((2-morpholinoethyl)amino)phenyl)-2,6-dimethylpyrimidin-4(3H)-one] | 1050 | 6.82 | –
Cc1cc(=O)n(-c2ccc(N3CCCC3)c(F)c2)c(C)n1 [Example 21, 3-(3-fluoro-4-(pyrrolidin-1-yl)phenyl)-2,6-dimethylpyrimidin-4(3H)-one] | 1300 | 5.57 | –
Cc1cc(=O)n(-c2ccc(N(CC(C)C)CC(C)C)c(F)c2)c(C)n1 [Example 23, 3-(4-(diisobutylamino)-3-fluorophenyl)-2,6-dimethylpyrimidin-4(3H)-one] | 110 | 30.31 | –
Cc1cc(=O)n(-c2ccc(-n3cccn3)c(F)c2)c(C)n1 [Example 19, 3-(3-fluoro-4-(1H-pyrazol-1-yl)phenyl)-2,6-dimethylpyrimidin-4(3H)-one] | 1190 | 3.21 | –
Cc1cc(=O)n(-c2ccc(NCCN3CCCCC3)c(F)c2)c(C)n1 [Example 36, 3-(3-fluoro-4-((2-(piperidin-1-yl)ethyl)amino)phenyl)-2,6-dimethylpyrimidin-4(3H)-one] | 2700 | 2.90 | –
CCCCN(CCCC)c1ccc(-n2c(C)nc(C)cc2=O)cc1F [Example 22, 3-(4-(di-n-butylamino)-3-fluorophenyl)-2,6-dimethylpyrimidin-4(3H)-one] | 190 | 39.47 | –
Cc1cc(=O)n(-c2ccc(N3CCOCC3)c(Cl)c2)c(COc2cccc(C#N)c2)n1 [Example 65, 3-((1-(3-chloro-4-morpholinophenyl)-4-methyl-6-oxo-1,6-dihydropyrimidin-2-yl)methoxy)benzonitrile] | 20 | 119.61 | –
CCCCCCN(CCCCCC)c1ccc(-n2c(COc3cccc(F)c3)nc(C)cc2=O)cc1F [Example 62, 3-(4-(dihexylamino)-3-fluorophenyl)-2-((3-fluorophenoxy)methyl)-6-methylpyrimidin-4(3H)-one] | 310 | 24.68 | –
Cc1cc(=O)n(-c2ccc(N(C)CCN3CCOCC3)c(F)c2)c(C)n1 [Example 28, 3-(3-fluoro-4-(methyl(2-morpholinoethyl)amino)phenyl)-2,6-dimethylpyrimidin-4(3H)-one] | 4990 | 1.60 | –
